# Results reported in patent US11691981B2, “Heterocyclic compounds, preparation methods therefor, and methods of uses thereof” (INVENTISBIO CO., LTD., priority 2019, dated 2023).
# Key:
# [1] = target: TGFβR1 (Homo sapiens (Human), UniProt P36897); assay: TGFβR1 kinase inhibition assay (ADP-Glo Kinase Assay); format: biochemical; settings: 40 nM TGFβR1 in 2x enzyme mix, 5.4 μM ATP in 2x substrate mix, 120 min RT
# Protocol: TGFβR1 kinase assay was performed according to the instruction manual of the ADP-Glo™ Kinase Assay kit provided by Promega. Prepare 1× Kinase buffer (50 mM Tris pH7.5, 0.1% BSA, 10 mM MgCl2, 1 mM DTT). Before activation reaction was started, Compounds were dissolved in DMSO and make 100× solution with 3-fold serial dilution for a total of 10 concentrations. Transfer 50 nL compounds to 384-well plate according to plate map using the automated liquid handler. […] Add 5 μL ADP-Glo Reagent to terminate the kinase reaction and deplete the remaining ATP, incubate at RT for 60 minutes. Add 10 μL Kinase Detection Reagent to convert ADP to ATP and allow the newly synthesized ATP to be measured using a luciferin reaction, incubate at RT for 30 minutes. Collect luminescence data with Envision.
# [2] = target: TGFβR2 (Homo sapiens (Human), UniProt P37173); assay: TGFβR2 kinase inhibition assay (ADP-Glo); format: biochemical; settings: 10 uM ATP, 120 min room temperature
# Chain of TGFβR2 (P37173 23-567): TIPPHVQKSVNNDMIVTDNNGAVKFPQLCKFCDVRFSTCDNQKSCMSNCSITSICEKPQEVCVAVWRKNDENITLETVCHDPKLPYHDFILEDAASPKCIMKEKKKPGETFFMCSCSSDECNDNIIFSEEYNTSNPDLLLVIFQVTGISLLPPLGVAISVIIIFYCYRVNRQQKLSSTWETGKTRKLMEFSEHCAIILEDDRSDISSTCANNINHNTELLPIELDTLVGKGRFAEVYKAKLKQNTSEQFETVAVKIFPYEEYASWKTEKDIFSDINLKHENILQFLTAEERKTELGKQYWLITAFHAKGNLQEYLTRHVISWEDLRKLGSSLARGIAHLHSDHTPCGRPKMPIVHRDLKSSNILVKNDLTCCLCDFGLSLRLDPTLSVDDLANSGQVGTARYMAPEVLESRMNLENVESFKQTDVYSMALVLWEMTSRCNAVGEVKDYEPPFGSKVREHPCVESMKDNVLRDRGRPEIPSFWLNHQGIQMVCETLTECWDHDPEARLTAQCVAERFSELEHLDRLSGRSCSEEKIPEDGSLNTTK
# Protocol: The TGFβR2 enzyme reaction was carried out as follows: 50 nL of compound in DMSO (or DMSO controls) were stamped into 384 white, low-volume plates. 2.5 μL of 2× enzyme solution (final enzyme concentration was 3 ng/uL in 40 mMTris, 7.5; 20 mM MgCl2; 0.1 mg/mL BSA; 1 mM DTT) was dispensed into assay plate. The plate was then sealed and spun at 1000 rpm for 30 s and incubated at room temperature for 10 min. Followed by addition of 2.5 μL of 2× substrate solution that contains both ATP (to make a final concentration of 10 uM) and TGFβR2 substrate (final concentration of 0.2 ug/uL). The plate was then sealed and spun at 1000 rpm for 30 s and the reaction was then incubated at room temperature for 120 min. After that 5 μL ADP-Glo™ Reagent was added into the assay wells to stop the reaction and deplete unconsumed ATP for 40 min at room temperature; then, 10 μL of Detection Reagent was added into the assay wells, followed by 40 min incubation to develop luminescence. The luminescence signal was then collected on Envision 2104 plate reader.
# Chain of TGFβR1 (P36897 34-503): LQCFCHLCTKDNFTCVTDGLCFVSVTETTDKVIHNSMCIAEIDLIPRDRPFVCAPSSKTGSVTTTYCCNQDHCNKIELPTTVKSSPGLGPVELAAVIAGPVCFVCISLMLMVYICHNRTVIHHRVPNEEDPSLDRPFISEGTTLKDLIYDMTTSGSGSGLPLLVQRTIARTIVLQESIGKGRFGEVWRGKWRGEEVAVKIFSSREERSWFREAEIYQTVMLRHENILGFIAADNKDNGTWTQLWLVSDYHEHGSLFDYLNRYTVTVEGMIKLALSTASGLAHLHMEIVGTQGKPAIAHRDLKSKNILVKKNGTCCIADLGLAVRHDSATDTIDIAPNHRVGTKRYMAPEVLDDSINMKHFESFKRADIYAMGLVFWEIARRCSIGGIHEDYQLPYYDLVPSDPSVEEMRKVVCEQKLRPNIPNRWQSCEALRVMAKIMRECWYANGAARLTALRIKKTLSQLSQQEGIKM
SMILES,IC50 [1] [nM],IC50 [2] [nM]
CC(C)(O)c1cc(Nc2cc(Oc3cc(C4CC4)nn3C3CCOCC3)ccn2)ccn1 [Compound 1],61,–
CC(C)(O)c1cc(Nc2cc(Oc3cc(C4CC4)nn3C3CCOCC3)ncn2)ccn1 [Compound 3],825,> 100000
Cc1cc(Oc2ccnc(Nc3ccnc(C(C)(C)O)c3)c2)n(C2CCOCC2)n1 [Compound 4],60,–
CC(C)(O)c1cc(Nc2cc(Oc3cc(C4CC4)nn3C3CC3)ccn2)ccn1 [Compound 5],43,> 100000
CC(C)(O)c1cc(Nc2cc(Oc3cc(C4CC4)nn3C(C)(C)C)ccn2)ccn1 [Compound 6],46,–
CC(C)(O)c1cc(Nc2cc(Oc3cc(C(F)(F)F)nn3C3CC3)ccn2)ccn1 [Compound 7],557,> 100000
CC(C)(O)c1cc(Nc2cc(Oc3cc(C(F)F)nn3C3CCOCC3)ccn2)ccn1 [Compound 8],173,> 100000
N#Cc1cccc(Nc2cc(Oc3cc(C(F)(F)F)nn3C3CCOCC3)ccn2)c1 [Compound 9],163,> 100000
N#Cc1ccc(Nc2cc(Oc3cc(C(F)(F)F)nn3C3CCOCC3)ccn2)cc1 [Compound 10],131,> 100000
NS(=O)(=O)c1ccc(Nc2cc(Oc3cc(C4CC4)nn3C3CCOCC3)ccn2)cc1 [Compound 14],37,> 100000
CC(C)(C)n1nc(C2CC2)cc1Oc1ccnc(Nc2ccc(S(N)(=O)=O)cc2)c1 [Compound 15],94,> 100000
CC(C)(O)c1cc(Nc2cc(Oc3cc(C(F)(F)F)nn3C(C)(C)C)ccn2)ccn1 [Compound 16],34,34000
CC(C)(O)c1cc(Nc2cc(Oc3cc(C(F)(F)F)nn3-c3ccccc3)ccn2)ccn1 [Compound 17],12,1000
C[C@@H]1C[C@@H](n2nc(C3CC3)cc2Oc2ccnc(Nc3ccnc(C(C)(C)O)c3)c2)C[C@H](C)O1 [Compound 18],> 10000,–
C[C@@H]1C[C@H](n2nc(C3CC3)cc2Oc2ccnc(Nc3ccnc(C(C)(C)O)c3)c2)C[C@H](C)O1 [Compound 19],7710,–
CC(C)(O)c1cc(Nc2cc(Oc3cc(C(F)(F)F)nn3CC3CC3)ccn2)ccn1 [Compound 20],48,–
CC(C)(O)c1cc(Nc2cc(Oc3cc(C4CC4)nn3CC(F)(F)F)ccn2)ccn1 [Compound 21],37,> 100000
CCn1nc(C(F)(F)F)cc1Oc1ccnc(Nc2ccnc(C(C)(C)O)c2)c1 [Compound 22],54,–
CC(C)(O)c1cc(Nc2cc(Oc3cc(C(F)(F)F)nn3C3CNC3)ccn2)ccn1 [Compound 24],223,–
CC(C)n1nc(C(F)(F)F)cc1Oc1ccnc(Nc2ccnc(C(C)(C)O)c2)c1 [Compound 25],66,–
CC(C)(O)c1cc(Nc2cc(Oc3cc(C(F)(F)F)nn3C3CCNCC3)ccn2)ccn1 [Compound 26],88,–
CC(C)(O)c1cc(Nc2cc(Oc3cc(C(F)(F)F)nn3C3CC3)ccn2)ccn1 [Compound 27],58,–

SMILES,IC50 [1] [nM],IC50 [2] [nM]
CC(C)(O)c1cc(Nc2cc(Oc3cc(C4CC4)nn3[C@H]3C[C@H]4CC[C@@H](C3)O4)ccn2)ccn1 [Compound 28],35,36000
CC(C)(O)c1cc(Nc2cc(Oc3cc(C4CC4)nn3[C@@H]3C[C@H]4CC[C@@H](C3)O4)ccn2)ccn1 [Compound 29],19,89000
C[C@@H]1C[C@@H](n2nc(C(F)(F)F)cc2Oc2ccnc(Nc3ccnc(C(C)(C)O)c3)c2)C[C@H](C)O1 [Compound 30],89,–
C[C@@H]1C[C@H](n2nc(C(F)(F)F)cc2Oc2ccnc(Nc3ccnc(C(C)(C)O)c3)c2)C[C@H](C)O1 [Compound 31],1040,–
CC(C)(O)c1cc(Nc2cc(Oc3cc(C(F)(F)F)nn3C3CCNC3)ccn2)ccn1 (centres unmarked) [Compound 32],868,–
CC(C)(O)c1cc(Nc2cc(Oc3cc(C(F)(F)F)nn3C3CCCNC3)ccn2)ccn1 (centres unmarked) [Compound 33],49,> 100000
Cc1ccc(-n2nc(C(F)(F)F)cc2Oc2ccnc(Nc3ccnc(C(C)(C)O)c3)c2)cc1 [Compound 34],42,17000
CC(C)(O)c1cc(Nc2cc(Oc3cc(C(F)(F)F)nn3-c3ccc(F)cc3)ccn2)ccn1 [Compound 35],86,–
CC(C)(O)c1cc(Nc2cc(Oc3cc(C(F)(F)F)nn3-c3cccc(Cl)c3)ccn2)ccn1 [Compound 36],56,–
CC(C)(O)c1cc(Nc2cc(Oc3cc(C(F)(F)F)nn3-c3cccnc3)ccn2)ccn1 [Compound 37],283,–
CC(C)(O)c1cc(Nc2cc(Oc3cc(C(F)(F)F)nn3-c3ccccc3F)ccn2)ccn1 [Compound 38],18,15000
COc1cc(Oc2ccnc(Nc3ccnc(C(C)(C)O)c3)c2)n(C2CCOCC2)n1 [Compound 39],126,–
CC(C)(O)c1cc(Nc2cc(Oc3cc(C(F)(F)F)nn3-c3ccccc3Cl)ccn2)ccn1 [Compound 40],71,–
CC(C)(O)c1cc(Nc2cc(Oc3cc(C(F)(F)F)nn3-c3cncnc3)ccn2)ccn1 [Compound 42],263,–
CC(C)(O)c1cc(Nc2cc(Oc3cc(C(F)(F)F)nn3-c3ccc(Cl)cc3)ccn2)ccn1 [Compound 43],159,–
CC(C)(O)c1cc(Nc2cc(Oc3cc(C(F)(F)F)nn3-c3ccc(C#N)cc3)ccn2)ccn1 [Compound 44],141,–
CC(C)(O)c1cc(Nc2cc(Oc3cc(C(F)(F)F)nn3-c3c(F)cccc3F)ccn2)ccn1 [Compound 45],13,21000
CC1(C)OC(=N)c2ccc(Nc3cc(Oc4cc(C5CC5)nn4C4CCOCC4)ccn3)cc21 [Compound 46],66,–
CC1(C)OC(=O)c2ccc(Nc3cc(Oc4cc(C5CC5)nn4C4CCOCC4)ccn3)cc21 [Compound 47],103,–
CC(C)(O)c1cc(Nc2cc(Oc3cc(C(F)(F)F)nn3-c3ccncc3)ccn2)ccn1 [Compound 48],132,–
CC(C)(O)c1cc(Nc2cc(Oc3cc(C(F)(F)F)nn3[C@@H]3C[C@H]4CC[C@@H](C3)O4)ccn2)ccn1 [Compound 49],32,–
CC(C)(O)c1cc(Nc2cc(Oc3cc(C(F)(F)F)nn3[C@H]3C[C@H]4CC[C@@H](C3)O4)ccn2)ccn1 [Compound 50],113,–

SMILES,IC50 [1] [nM],IC50 [2] [nM]
CC(C)(O)c1cc(Nc2cc(Oc3cc(C(F)(F)F)nn3-c3ccccc3C#N)ccn2)ccn1 [Compound 51],55,–
CC(C)(O)c1ccc(Nc2cc(Oc3cc(C(F)(F)F)nn3-c3ccccc3F)ccn2)cn1 [Compound 52],21,16000
CC(C)(O)c1ccc(Nc2cc(Oc3cc(C(F)(F)F)nn3-c3c(F)cccc3F)ccn2)cn1 [Compound 53],18,56000
COc1ccc(Oc2ccnc(Nc3ccnc(C(C)(C)O)c3)c2)c(C2CCOCC2)n1 [Compound 56],220,–
CC(C)(O)c1cc(Nc2cc(Oc3ccc(C(F)(F)F)nc3C3CCOCC3)ccn2)ccn1 [Compound 60],50,–
CC(C)(O)c1cc(Nc2cc(Oc3ccc(C4CC4)nc3C3CCOCC3)ccn2)ccn1 [Compound 61],116,–
Cc1ccc(Oc2ccnc(Nc3ccc(C(C)(C)O)nc3)c2)c(C)n1 [Compound 62],29,–
Cc1ccc(Oc2ccnc(Nc3ccnc(C(C)(C)O)c3)c2)c(C(F)(F)F)n1 [Compound 63],82,–
COc1ccc(Oc2ccnc(Nc3ccnc(C(C)(C)O)c3)c2)c(C)n1 [Compound 64],32,–
Cc1nc(C(F)(F)F)ccc1Oc1ccnc(Nc2ccnc(C(C)(C)O)c2)c1 [Compound 65],14,–
Cc1ccc(Oc2ccnc(Nc3ccnc(C(C)(C)O)c3)c2)c(CC(C)C)n1 [Compound 66],4,–
CC(C)(O)c1cc(Nc2cc(Sc3cn(C4CC4)nc3C3CCOCC3)ccn2)ccn1 [Compound 70],80,–
CC(C)(O)c1cc(Nc2cc(Oc3c(C4CCOCC4)nn4c3CCC4)ccn2)ccn1 [Compound 71],25,–
CC(C)(O)c1cc(Nc2cc(Oc3sc(C4CC4)nc3C3CCOCC3)ccn2)ccn1 [Compound 72],111,–
NS(=O)(=O)c1ccc(Nc2cc(Oc3cn(C4CC4)nc3C3CCOCC3)ccn2)cc1 [Compound 73],14,–
C[C@@H]1CC(c2nn(C3CC3)cc2Oc2ccnc(Nc3ccnc(C(C)(C)O)c3)c2)C[C@H](C)O1 (some centres unmarked) [Compound 74],17,–
CC(C)(C)c1nc(C2CC2)sc1Oc1ccnc(Nc2ccnc(C(C)(C)O)c2)c1 [Compound 75],6690,–
CC(C)c1nc(C2CCOCC2)c(Oc2ccnc(Nc3ccnc(C(C)(C)O)c3)c2)s1 [Compound 76],90,–
CC(C)(O)c1cc(Nc2cc(Oc3cn(C4CC4)nc3C3CCC(F)(F)CC3)ccn2)ccn1 [Compound 77],–,39000
CC(C)(O)c1cc(Nc2cc(Oc3cn(C4CC4)nc3C(=O)Nc3ccccc3F)ccn2)ccn1 [Compound 80],57,–
